In article PMC3779694 (Hepatology (Baltimore, Md.), 2011):
Entries after “also recorded” stand apart in the source; their conditions may differ.

Columns and labels:
[1] = system: adults with NASH; experiment: Adverse events, phase 2 trial; type: in vivo, human; conditions: for Abdominal pain / Abdominal pain upper / Arthralgia / Asthenia / Back pain / Constipation / Diarrhea / Dizziness / Dry mouth / Dyspepsia / Fatigue / Gastroesophageal reflux disease / Headache / Nasopharyngitis / Nausea / No. of subjects with at least one AE / Pain in extremity / Somnolence / Total no. of events (AEs): during treatment
[2] = system: hepatitis C subjects; conditions: human, in vivo; cited from earlier work
[3] = system: adults with NASH; experiment: Treatment-emergent grade 3 or 4 laboratory abnormalities, phase 2 trial
[4] = system: adults with NASH; experiment: Exploratory pharmacokinetic/pharmacodynamic modeling; type: in vivo, human; conditions: mean exposure with 40 mg; inhibitory Emax model
[5] = system: adults with NASH; experiment: Serum caspase-3-cleaved CK-18 fragments; type: in vivo, human; conditions: mean (SD)
[6] = system: adults with NASH; experiment: Serum AST, phase 2 placebo-controlled trial of GS-9450 for 4 weeks; type: in vivo, human; conditions: for AST, %Change at Week 4 / AST, Change at Week 2 / AST, Change at Week 4: mean (SD)
[7] = range across the GS-9450 treatment groups

CC(C)[C@@]1(C(=O)N[C@H]2CC(=O)O[C@]2(O)CF)CC(c2nccc3ccccc23)=NO1 [GS-9450]
frequency of treatment-emergent AEs during the 4-week on-treatment period ([1]; 10 mg): 75%
Abdominal pain ([1]; 10 mg (n = 24)): 1 (4) n (%)
Abdominal pain upper ([1]; 10 mg (n = 24)): 4 (17) n (%)
Arthralgia ([1]; 10 mg (n = 24)): 1 (4) n (%)
Asthenia ([1]; 10 mg (n = 24)): 1 (4) n (%)
Back pain ([1]; 10 mg (n = 24)): 0 n (%)
Constipation ([1]; 10 mg (n = 24)): 0 n (%)
Diarrhea ([1]; 10 mg (n = 24)): 6 (25) n (%)
Dizziness ([1]; 10 mg (n = 24)): 0 n (%)
Dry mouth ([1]; 10 mg (n = 24)): 2 (8) n (%)
Dyspepsia ([1]; 10 mg (n = 24)): 1 (4) n (%)
Fatigue ([1]; 10 mg (n = 24)): 2 (8) n (%)
Gastroesophageal reflux disease ([1]; 10 mg (n = 24)): 0 n (%)
Headache ([1]; 10 mg (n = 24)): 4 (17) n (%)
Nasopharyngitis ([1]; 10 mg (n = 24)): 0 n (%)
Nausea ([1]; 10 mg (n = 24)): 3 (13) n (%)
No. of subjects with at least one AE ([1]; 10 mg (n = 24)): 18 (75) n (%)
Pain in extremity ([1]; 10 mg (n = 24)): 1 (4) n (%)
Somnolence ([1]; 10 mg (n = 24)): 0 n (%)
Total no. of events (AEs) ([1]; 10 mg (n = 24)): 67
frequency of treatment-emergent AEs during the 4-week on-treatment period ([1]; 40 mg): 80%
Abdominal pain ([1]; 40 mg (n = 25)): 1 (4) n (%)
Abdominal pain upper ([1]; 40 mg (n = 25)): 1 (4) n (%)
Arthralgia ([1]; 40 mg (n = 25)): 3 (12) n (%)
Asthenia ([1]; 40 mg (n = 25)): 0 n (%)
Back pain ([1]; 40 mg (n = 25)): 1 (4) n (%)
Constipation ([1]; 40 mg (n = 25)): 2 (8) n (%)
Diarrhea ([1]; 40 mg (n = 25)): 5 (20) n (%)
Dizziness ([1]; 40 mg (n = 25)): 2 (8) n (%)
Dry mouth ([1]; 40 mg (n = 25)): 1 (4) n (%)
Dyspepsia ([1]; 40 mg (n = 25)): 1 (4) n (%)
Fatigue ([1]; 40 mg (n = 25)): 2 (8) n (%)
Gastroesophageal reflux disease ([1]; 40 mg (n = 25)): 3 (12) n (%)
Headache ([1]; 40 mg (n = 25)): 4 (16) n (%)
Nasopharyngitis ([1]; 40 mg (n = 25)): 2 (8) n (%)
Nausea ([1]; 40 mg (n = 25)): 3 (12) n (%)
No. of subjects with at least one AE ([1]; 40 mg (n = 25)): 20 (80) n (%)
Pain in extremity ([1]; 40 mg (n = 25)): 2 (8) n (%)
Somnolence ([1]; 40 mg (n = 25)): 0 n (%)
Total no. of events (AEs) ([1]; 40 mg (n = 25)): 60
subjects who left the study because of a treatment-related AE ([1]; 40 mg, moderate facial flushing from day 1): One subject
overall safety and tolerability ([1]; 4 weeks, 1-40 mg): safe and well tolerated
serious adverse events during the on-treatment period ([1]; all GS-9450 doses, 4 weeks): No serious adverse events; also recorded: no serious AEs (SAEs)
deaths during the study ([1]; all groups): no deaths
drug-induced liver injury [2]: episodes of drug-induced liver injury attributable to GS-9450 occurred
treatment-emergent grade 3 elevated ALT, subjects ([3]; 1 mg, on-treatment): one subject
treatment-emergent grade 3 elevated AST, subjects ([3]; 5 mg): one subject
treatment-emergent grade 3 or 4 elevated serum lipase, subjects ([3]; 5 mg): one subject
treatment-emergent grade 3 or 4 ALT elevations during dosing ([3]; 5, 10, or 40 mg daily, 75 patients): No treatment-emergent grade 3 or 4 ALT elevations
response as percent of the maximal effect achievable with GS-9450 (week 4 difference in ALT or CK-18 fragments) [4]: at least 82%
CK-18 fragments, %Change at Week 4 ([5]; 1 mg once daily): 23 (81) %
CK-18 fragments, Change at Week 2 ([5]; 1 mg once daily): 164 (384) U/L
CK-18 fragments, Change at Week 4 ([5]; 1 mg once daily): 192 (584) U/L
CK-18 fragments, %Change at Week 4 ([5]; 5 mg once daily): 25 (120) %
CK-18 fragments, Change at Week 2 ([5]; 5 mg once daily): −116 (608) U/L
CK-18 fragments, Change at Week 4 ([5]; 5 mg once daily): 96 (641) U/L
CK-18 fragments, %Change at Week 4 ([5]; 10 mg once daily): −26 (38) %
CK-18 fragments, Change at Week 2 ([5]; 10 mg once daily): −460 (866) U/L
CK-18 fragments, Change at Week 4 ([5]; 10 mg once daily): −393 (723) U/L
mean CK-18 fragment levels had decreased to, by week 4 ([5]; 10 mg): 393 (723) U/L
CK-18 fragments, %Change at Week 4 ([5]; 40 mg once daily): −19 (32) %
CK-18 fragments, Change at Week 2 ([5]; 40 mg once daily): −140 (490) U/L
CK-18 fragments, Change at Week 4 ([5]; 40 mg once daily): −125 (212) U/L
mean CK-18 fragment levels had decreased to, by week 4 ([5]; 40 mg): 125 (212) U/L
AST, %Change at Week 4 ([6]; 1 mg once daily): −2 (41) %
AST, Change at Week 2 ([6]; 1 mg once daily): −4 (36) U/L
AST, Change at Week 4 ([6]; 1 mg once daily): −8 (35) U/L
AST, %Change at Week 4 ([6]; 5 mg once daily): −6 (38) %
AST, Change at Week 2 ([6]; 5 mg once daily): −12 (16) U/L
AST, Change at Week 4 ([6]; 5 mg once daily): −5 (24) U/L
AST, %Change at Week 4 ([6]; 10 mg once daily): −16 (29) %
AST, Change at Week 2 ([6]; 10 mg once daily): −22 (34) U/L
AST, Change at Week 4 ([6]; 10 mg once daily): −12 (36) U/L
mean AST decrease from baseline to week 4 ([6]; 40 mg): 13 U/L
proportion of subjects with normal AST, peak at day 3 ([6]; 40 mg): 77%
AST, %Change at Week 4 ([6]; 40 mg once daily): −20 (26) %
AST, Change at Week 2 ([6]; 40 mg once daily): −16 (20) U/L
AST, Change at Week 4 ([6]; 40 mg once daily): −13 (20) U/L
proportion of subjects with normal AST at week 4 ([6]; 40 mg, 20% at baseline, normal 36 U/L males, 34 U/L females): 48%
mean AST within 1 week of stopping study medication ([6]; all GS-9450 treatment groups): modestly above baseline levels
AST mean (SD) changes by treatment week 4 [6, 7]: −5 (24) to −13 (20) U/L
AST mean changes from baseline over the first week of treatment [6, 7]: −9 (23) to −27 (29) U/L
